Values of other authors as cited in patent US20080311196A1, “All Day Rhinitic Condition Treatment Regimen” (priority 2006, published 2008).

What was measured:
histamine H1-receptor = histamine H1-receptor (Homo sapiens, UniProt P35367); settings: E-isomer versus Z-isomer; fit in the histamine H1-receptor binding site
Sequence of histamine H1-receptor (P35367 whole entry, species assumed): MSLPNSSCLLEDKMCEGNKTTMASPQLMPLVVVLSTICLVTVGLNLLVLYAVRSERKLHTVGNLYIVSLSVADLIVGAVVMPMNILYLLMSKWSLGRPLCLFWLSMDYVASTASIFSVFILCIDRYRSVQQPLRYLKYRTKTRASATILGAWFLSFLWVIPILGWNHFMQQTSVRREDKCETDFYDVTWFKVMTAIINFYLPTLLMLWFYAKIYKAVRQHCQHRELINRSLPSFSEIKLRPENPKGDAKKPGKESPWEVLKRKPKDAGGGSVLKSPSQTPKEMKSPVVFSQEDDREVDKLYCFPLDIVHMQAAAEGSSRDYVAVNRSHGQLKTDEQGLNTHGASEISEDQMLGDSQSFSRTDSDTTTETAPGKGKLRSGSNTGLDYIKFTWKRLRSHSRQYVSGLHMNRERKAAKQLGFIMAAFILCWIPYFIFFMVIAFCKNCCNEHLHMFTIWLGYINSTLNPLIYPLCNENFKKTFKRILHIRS

Molecule | time of maximal pharmacological sedation after dosing (after dosing) | persistence of sedation following dosing (following dosing, usually not longer than) | duration of inhibition of the symptoms of rhinitis (single dose) | potency relative to Z-triprolidine (histamine H1-receptor)
CN(C)CCC(c1ccc(Cl)cc1)c1ccccn1 (stereo not shown) [chlorpheniramine] | 3 to 4 hour | 6 to 8 h | more than 24 hours | 
E-triprolidine |  |  |  | E-triprolidine, for example, is 1000-fold
